# Laboratory results: patent publication US7803832B2, “N-(1-arylpyrazol-4L)sulfonamides and their use as parasiticides” (Pfizer Inc., priority 2004, dated 2010)
# Test system: Ctenocephalides felis (cat flea)
# Experiment: flea membrane feed test
# Conditions: in vitro membrane feed; adult fleas fed 2 hours on citrated dog blood containing compound, stored overnight, percentage of fleas killed; dose responses repeated n=5
# Procedure: The flea membrane feed test is used to measure the biological activities of the compounds claimed. The assay involves in vitro testing against Ctenocephalides felis conducted according to the following general procedure.
# Fleas are cultured in vitro using dog blood. 25-30 adult Ctenocephalides felis (cat flea) were collected and placed in a test chamber (50 ml polystyrene tube with fine nylon mesh sealing the end). Citrated dog blood was prepared by adding aqueous sodium citrate solution (10 ml, 20% w/v, 20 g sodium citrate in 100 ml water) to dog blood (250 ml). Test compounds were dissolved in dimethylsulfoxide to give a working stock solution of 4 mg/ml. The stock solution (12.5 μl) was added to citrated dog blood (5 ml) to give an initial test concentration of 10 μg/ml. For testing at 30 μg/ml, working stock solutions of 12 mg/ml were prepared.
# Citrated dog blood containing the test compound (5 ml, 10 μg/ml) was placed into a plastic Petri dish lid, which was kept at 37° C. on a heated pad. Parafilm was stretched over the open top to form a tight membrane for the fleas to feed through. The test chamber containing the fleas was placed carefully onto the parafilm membrane and the fleas commenced feeding.
# The fleas were allowed to feed for 2 hours and the test chambers were then removed and stored overnight at room temperature.
# The fleas were observed and the percentage of fleas killed recorded. Compounds were initially tested at 10 μg/ml, wherefrom relevant dose responses (100, 30, 10, 3, 1, 0.3, 0.1 μg/ml) were conducted and repeated n=5. Data was plotted to generate ED80, ED90 & ED95 values.
row,SMILES,Flea feed ED80 results [µg/mL]
1,"CS(=O)(=O)N(c1c(C#N)nn(-c2c(Cl)cc(C(F)(F)F)cc2Cl)c1N)S(=O)(=O)c1ccc(F)cc1F [Example 84, N-{5-amino-3-cyano-1-[2,6-dichloro-4-(trifluoromethyl)phenyl]-1H-pyrazol-4-yl}-2,4-difluoro-N-(methylsulfonyl)benzenesulfonamide]",3
2,"CN(c1cn(-c2c(Cl)cc(C(F)(F)F)cc2Cl)nc1C#N)S(=O)(=O)C(F)(F)F [Example 27, N-{3-cyano-1-[2,6-dichloro-4-(trifluoromethyl)phenyl]-1H-pyrazol-4-yl}-1,1,1-trifluoro-N-methyl methanesulfonamide]",0.1
3,"CS(=O)(=O)N(CC#N)c1c(C#N)nn(-c2c(Cl)cc(C(F)(F)F)cc2Cl)c1N [Example 5, N-{5-amino-3-cyano-1-[2,6-dichloro-4-(trifluoromethyl)phenyl]-1H-pyrazol-4-yl}-N-(cyanomethyl)methanesulfonamide]",1
